Data from patent US10888608B2, “Costimulation of chimeric antigen receptors by MyD88 and CD40 polypeptides” (BELLICUM PHARMACEUTICALS, INC., priority 2014, dated 2021).
Like-named read-outs stand apart in the source and are kept apart here.

Experiments:
[1] = tested on: iC9-CD19.ζ-MC CAR-modified T cells; test: Raji tumor NSG mouse model with iC9-CD19.ζ-MC CAR T cells and rimiducid (Example 19); format: in vivo, mice
Procedure: FIG. 40A-FIG. 40C provide results of the enhancement of CD19 CAR-T cell efficacy in vivo by the MyD88/CD40 chimeric costimulatory molecule using the constructs of FIG. 37A-FIG. 37E. FIG. 40A: NSG mice (n=5 per group) were engrafted with Raji-luciferase tumor cells and then treated with non-transduced (NT) or iC9-CD19.ζ-MC CAR-modified T cells on day 3. Tumor growth was measured by IVIS imaging and calculated by whole-body BLI, as shown in photos. FIG. 40B provides a graph of bioluminescent counts (BLI counts) and FIG. 40C provides a graph of (Kaplan-Meier analysis from (A)).
FIG. 41A-FIG. 41C provide results of assays of the titration of inducible chimeric Caspase-9 expressing cells, using the constructs of FIG. 37A-FIG. 37E, with rimiducid. FIG. 41A and FIG. 41B: NSG mice (n=5 per group) were engrafted with CD19^+ Raji lymphoma cells and treated with 5×10^6 iC9-CD19.ζ-MC/luciferase-transduced T cells at day 3. After 6 days, mice were treated i.p. with log dilutions of rimiducid (0.00005-5 mg/kg). BLI of CAR-T cells was assessed prior to rimiducid treatment and at 24 and 48 hours post-injection. […] FIG. 41C provides graphs of serum cytokine levels, which were measured from each group before (black line) and 24 hours post-administration (gray line) of rimiducid. *P-value=<0.01.
5×10^5 Raji tumor cells were injected i.v. into NSG mice. On day 3, CD19 CAR-modified T cells were injected i.v. and bioluminescence (BLI) was measured for either tumor or T cells on a weekly basis by IVIS imaging. […]
FIG. 40 provides the results of mouse in vivo efficacy assays using the various CD19-specific CAR constructs. […] Tumor growth was measured by IVIS imaging and calculated by whole-body BLI (B). […]
FIG. 41 provides the results of mouse in vivo assays including CD19-specific CAR constructs and the Caspase-9 safety switch. […] BLI of CAR-T cells was assessed prior to rimiducid treatment and at 24 and 48 hours post-injection. C) Serum cytokine levels were measured from each group before (black line) and 24 hours post-administration (orange line) of rimiducid. *P-value=<0.01.

[2] = tested on: CD3^+ ΔCD19^+ cells; test: Phase I clinical trial: iCasp9^+ allodepleted T cells after haplo-CD34^+ stem cell transplantation, AP1903 given for GvHD; format: in vivo, human
Text: This example presents results of a phase 1 clinical trial using an alternative suicide gene strategy. Briefly, donor peripheral blood mononuclear cells were co-cultured with recipient irradiated EBV-transformed lymphoblastoid cells (40:1) for 72 hrs., allodepleted with a CD25 immunotoxin and then transduced with a retroviral supernatant carrying the iCasp9 suicide gene and a selection marker (ΔCD19); ΔCD19 allowed enrichment to >90% purity via immunomagnetic selection.
Patients developing grade 1 GvHD were treated with 0.4 mglkg AP1903 as a 2-hour infusion. Protocols for administration of AP1903 to patients grade 1 GvHD were established as follows. Patients developing GvHD after infusion of allodepleted T cells are biopsied to confirm the diagnosis and receive 0.4 mg/kg of AP1903 as a 2 h infusion. […] Patients developing grades 2-4 GvHD were administered standard systemic immunosuppressive therapy per institutional guidelines, in addition to the AP1903 dimerizer drug.
Three patients received iCasp9^+ T cells after haplo-CD34^+ stem cell transplantation (SCT), at dose levels between about 1×10^6 to about 3×10^6 cells/kg.

[3] = tested on: cells; test: AP1903 amount needed in vitro for effective signaling of cells; format: cell-based
Procedure: The fixed dose of AP1903 for injection used, for example, may be 0.4 mg/kg intravenously infused over 2 hours. The amount of AP1903 needed in vitro for effective signaling of cells is about 10-100 nM (MW: 1412 Da). This equates to 14-140 μg/L or ˜0.014-0.14 mg/kg ([…]). The dosage may vary according to the application, and may, in certain examples, be more in the range of 0.1-10 nM, or in the range of 50-150 nM, 10-200 nM, 75-125 nM, 100-500 nM, 100-600 nM, 100-700 nM, 100-800 nM, or 100-900 nM. Doses up to 1 mg/kg were well-tolerated in the Phase I study of AP1903 provided above.

[4] = cited from earlier work
[5] = tested on: Caspase-9; test: Caspase mutant classes: basal activity and ligand IC50; parameters: species or system human; settings: mutants marked *, predicted
Text: Modified Caspase-9 Polypeptides with Lower Basal Activity and Minimal Loss of Ligand IC50
Even though homo-dimerization of wild-type initiator Caspase-9 is energetically unfavorable, making them mostly monomers in solution [14-16], the low-level inherent basal activity of unprocessed Caspase-9 [15, 17] is enhanced in the presence of the Apaf-1-based “apoptosome”, its natural allosteric regulator [6]. Moreover, supra-physiological expression levels and/or co-localization could lead to proximity-driven dimerization, further enhancing basal activation. The modified cells of the present application may comprise nucleic acids coding for a chimeric Caspase-9 polypeptide having lower basal signaling activity. Polynucleotides comprising Caspase-9 mutants with lower basal signaling may be expressed in the modified cells used for cell therapy herein. […] In some examples, the amount of dimerizer administered may be determined as an amount designed to remove the highest amount, at least 80% or 90% of the modified cells. In other examples, the amount of dimerizer administered may be determined as an amount designed to remove only a portion of the modified cells, in order to alleviate negative symptoms or conditions, while leaving a sufficient amount of therapeutic modified cells in the patient, in order to continue therapy. […]

[6] = rimiducid administered at objective evidence of sCRS

| Molecule | CAR T cell elimination on titration ([1]; iCaspase-9 safety switch, titrated rimiducid) | resolution of clinical sCRS [1, 6] | time to normalization of cytokines [1, 6] [h] | time to resolution of skin and liver aGvHD ([2]; after AP1903 administration) [h] | ablation of CD3^+ ΔCD19^+ cells ([2]; within 30 minutes of infusion, patients with grade I/II aGvHD) [%] | further reduction of CD3^+ ΔCD19^+ cells ([2]; within 24 hours) | amount needed in vitro for effective signaling of cells [3] [nM] | plasma levels versus dose ([4]; 0.01-1.0 mg/kg) | plasma levels, % of maximal concentration ([4]; 2 hours post-dose) [%] | plasma levels, % of maximal concentration ([4]; 10 hours post-dose) [%] | serious adverse events ([4]; Phase 1 study in volunteers) | severity of adverse events ([4]; Phase 1 study in volunteers) | doses well-tolerated ([4]; Phase I study) | mean Cmax / plasma concentrations ([4]; single doses 0.01-1.0 mg/kg infused IV over 2 hours) [ng/mL] | adverse events possibly related to AP1903 ([4]; vasodilatation (facial flushing), 1 volunteer at 1.0 mg/kg) | Basal Activity [5] |
| --- | --- | --- | --- | --- | --- | --- | --- | --- | --- | --- | --- | --- | --- | --- | --- | --- |
| CC[C@H](C(=O)N1CCCC[C@H]1C(=O)O[C@H](CCc1ccc(OC)c(OC)c1)c1cccc(OCC(=O)NCCNC(=O)COc2cccc([C@@H](CCc3ccc(OC)c(OC)c3)OC(=O)[C@@H]3CCCCN3C(=O)[C@@H](CC)c3cc(OC)c(OC)c(OC)c3)c2)c1)c1cc(OC)c(OC)c(OC)c1 (relative stereo) [AP1903, 2-Piperidinecarboxylic acid, 1-[(2S)-1-oxo-2-(3,4,5-trimethoxyphenyl)butyl]-, 1,2-ethanediylbis [imino(2-oxo-2,1-ethanediyl)oxy-3,1-phenylene[(1R)-3-(3,4-dimethoxyphenyl)propylidene]] ester, [2S-[1(R*),2R*[S*[S*[1(R*),2R*]]]]]-(9Cl)] | partial T cell elimination that still preserved CAR-T cell function | complete resolution of clinical sCRS without compromising tumor control | ≤ 24 | ≤ 24 | > 90 | further log reduction | 10 to 100 | directly proportional to dose | ~7 | ~1 | No serious adverse events occurred | mild in severity | up to 1 mg/kg | 10 to 1275 | Only one adverse event was considered possibly related to AP1903 | – |
| N405Q-S144Aco: Caspase-9 double mutant, class predicted (protein, UniProt P55211 1-416, looked up, variant N405Q S144A, codon optimized, Caspase-9 double mutant, class predicted) MDEADRRLLRRCRLRLVEELQVDQLWDALLSRELFRPHMIEDIQRAGSGSRRDQARQLIIDLETRGSQALPLFISCLEDTGQDMLASFLRTNRQAAKLSKPTLENLTPVVLRPEIRKPEVLRPETPRPVDIGSGGFGDVGALEALRGNADLAYILSMEPCGHCLIINNVNFCRESGLRTRTGSNIDCEKLRRRFSSLHFMVEVKGDLTAKKMVLALLELAQQDHGALDCCVVVILSHGCQASHLQFPGAVYGTDGCPVSVEKIVNIFNGTSCPSLGGKPKLFFIQACGGEQKDHGFEVASTSPEDESPGSNPEPDATPFQEGLRTFDQLDAISSLPTPSDIFVSYSTFPGFVSWRDPKSGSWYVETLDDIFEQWAHSEDLQSLLLRVANAVSVKGIYKQMPGCFQFLRKKLFFKTS | – | – | – | – | – | – | – | – | – | – | – | – | – | – | – | Decreased |
| N405Q-T317Sco: Caspase-9 double mutant, class predicted (protein, UniProt P55211 1-416, looked up, variant N405Q T317S, codon-optimized, Caspase-9 double mutant, class predicted) MDEADRRLLRRCRLRLVEELQVDQLWDALLSRELFRPHMIEDIQRAGSGSRRDQARQLIIDLETRGSQALPLFISCLEDTGQDMLASFLRTNRQAAKLSKPTLENLTPVVLRPEIRKPEVLRPETPRPVDIGSGGFGDVGALESLRGNADLAYILSMEPCGHCLIINNVNFCRESGLRTRTGSNIDCEKLRRRFSSLHFMVEVKGDLTAKKMVLALLELAQQDHGALDCCVVVILSHGCQASHLQFPGAVYGTDGCPVSVEKIVNIFNGTSCPSLGGKPKLFFIQACGGEQKDHGFEVASTSPEDESPGSNPEPDASPFQEGLRTFDQLDAISSLPTPSDIFVSYSTFPGFVSWRDPKSGSWYVETLDDIFEQWAHSEDLQSLLLRVANAVSVKGIYKQMPGCFQFLRKKLFFKTS | – | – | – | – | – | – | – | – | – | – | – | – | – | – | – | Decreased |
